The source of these data is patent US7531500B2, “Preventing airway mucus production by administration of EGF-R antagonists” (The Regents of the University of California, priority 1998, dated 2009).

Test [1] deals with NCI-H292 cells. Briefly: Immunoassay of MUC5AC protein in NCI-H292 cells (Example 2). Format: cell-based, human. The following applies: for MUC5AC synthesis by supernatant of activated neutrophils, cigarette smoke and H2O2 / MUC5AC protein synthesis by TGFα: DMSO 1%, SOD 300 U/ml; for MUC5AC synthesis by supernatant of activated neutrophils, cigarette smoke and H2O2: DMTU 50 mM; for MUC5AC protein synthesis induced by the supernatant of activated neutrophils: BIBX1522 10 μg/ml, AG1478 10 μM, AG1295 100 μM, A1 100 μM, 30 min pretreatment, antibodies preincubated with supernatant. The method, then:
Cell Culture. NCI-H292 cells, a human pulmonary mucoepidermoid carcinoma cell line, were grown in RPMI 1640 medium containing 10% fetal bovine serum, penicillin (100 U/ml), streptomycin (100 μg/ml) and Hepes (25 mM) at 37° C. in a humidified 5% CO2, water-jacketed incubator. Either 6-well culture plates or 8-chamber slides were used to culture the cells. […] The cells were then washed and incubated with fresh medium alone. Experiments were terminated at preselected times (for mRNA, 6 h and 12 h; for protein, 24 h). As controls, cells were incubated with medium alone for same time periods. […] In inhibition studies with blocking antibodies to EGF-R ligands, the supernatants were pretreated with anti-TGFα antibody (Calbiochem) or anti-EGF antibody for 30 min and then added to NCI-H292 cells. The role of oxygen free radicals was examined using scavengers of oxygen free radical DMSO (1%, Sigma), 1,3-dimethyl-2-thiourea (DMTU, 50 mM, Sigma), or superoxide dismutase (SOD, 300 U/ml, Sigma).
Preparation of Cigarette Smoke Solution. Research cigarettes (code2R1, produced for the University of Kentucky Tobacco and Health Research Foundation) were used in the study. Cigarette smoke solution was prepared as previously described (Dusser et al. (1989) J. Clin. Invest. 84:900-906). In brief, cigarette smoke was withdrawn into a polypropylene syringe (35 ml) at a rate of one puff/min (10 times) and bubbled slowly into 20 ml of RPM11640 containing 50 mM Hepes buffer. The smoke solution was then titrated to pH 7,4 and used immediately after preparation.
Immunoassay of MUC5AC Protein. MUC5AC protein was measured as described above. In brief, cell lysates were prepared with PBS at multiple dilutions, and 50 μl of each sample was incubated with bicarbonate-carbonate buffer (50 μl) at 40° C. in a 96-well plate (Maxisorp Nunc, Fisher Scientific, Santa Clara, Calif.), until dry. Plates were washed three times with PBS and blocked with 2% BSA (fraction V, Sigma) for 1 h at room temperature. Plates were again washed three times with PBS and then incubated with 50 μl of mouse monoclonal MUC5AC antibody (1:100) that was diluted with PBS containing 0.05% Tween 20. After 1 h, the wells were washed three times with PBS, and 100 μl horseradish peroxidase-goat anti-mouse IgG conjugate (1:10,000, Sigma) was dispensed into each well. After 1 h, plates were washed three times with PBS. Color reaction was developed with TMB peroxidase solution (Kirkegaard & Perry Laboratories, Gaithersburg, Md.) and stopped with 2N H2SO4. Absorbance was read at 450 nm.

The subject of test [2] is NCI-H292 cells. Briefly: MUC5AC mRNA and protein in NCI-H292 cells incubated with cigarette smoke solution (Example 7). Format: cell-based, human. To be noted: BIBX1522 10 μg/ml, AG1478 10 μM; for MUC5AC protein synthesis induced by cigarette smoke solution: AG1295 100 μM, A1 100 μM, DMSO 1%, SOD 300 U/ml. Here is the method:
NCI-H292 cells, a human pulmonary mucoepidermoid carcinoma cell line, were grown in RPMI 1640 medium containing 10% fetal bovine serum, penicillin (100 U/ml), streptomycin (100 μg/ml) and Hepes (25 mM) at 37° C. in a humidified 5% CO2 water-jacketed incubator. Either 6-well culture plates or 8-chamber slides were used to culture the cells. When confluent, cells were incubated for 1 hour with cigarette smoke solution. The cells were then washed and incubated with fresh medium alone. Experiments were terminated at preselected times (for mRNA, 6 hours and 12 hours; for protein, 24 hours). As controls, cells were incubated with medium alone for same time periods. […] The effects of a selective inhibitor of platelet-derived growth factor receptor tyrosine kinase (tyrphostin AG1295, 100 μM, Calbiochem), and a negative control for tyrphostins (tyrphostin A1, 100 μM, Calbiochem) were also examined. The role of reactive oxygen species was examined using a scavenger of oxygen free radicals DMSO (1%, Sigma), or superoxide dismutase (SOD, 300 U/ml, Sigma).
In situ hybridization was performed using a human EGFR probe, which contains a 350-bp cDNA fragment of the human EGFR gene (pTRI-EGFR-human probe template, Ambion, Austin, Tex.) and a human MUC5AC probe, which contains a 298-bp cDNA fragment of the human MUC5AC gene, The 350-bp cDNA human EGFR was subcloned into pBluescript II SK-vector at Kpn I and EcoR I sites. This pBluescript was used to generate human EGFR antisense and sense probes. Hybridization was performed as described previously. Lou et al. (1998) Am. J. Respir. Crit. Care Med. 157:1927-1934. In brief, the cells grown on the 8-chamber slides were fixed in 4% paraformaldehyde, rehydrated in 0.5×SSC, and then acetylated in triethanolamine and acetic anhydride. Hybridization was carried out with 2500-4000 cpm/μl of antisense or sense probe in 50% deionized formamide, 0.3 M NaCl, 20 mM Tris, 5 mM EDTA, 1× Denhardt's solution, 20 mM dithiothreitol, 10% dextran sulfate, 0.5 mg/ml yeast tRNA, and 0.5 mg/ml sonicated salmon sperm DNA at 58° overnight. Posthybridization treatment consisted of washes with 2×SSC, 1 mM EDTA, 10 mM β-mercaptoethanol at room temperature, incubation with RNase solution (20 μg/ml) for 30 min at room temperature, and further washes in 0.1×SSC, 1 mM EDTA, 10 mM β-mercaptoethanol at 55° C. for 2 hours and then in 0.5×SSC at room temperature for 20 minutes. Specimens were dehydrated, air-dried, and covered with Kodak NBT nuclear track emulsion (Eastman Kodak, Rochester, N.Y.) for autoradiography. After exposure for 7 to 21 days at 4° C., the slides were developed, fixed, and counterstained with hematoxylin.
MUC5AC protein was measured as described previously. Takeyama et al. (1999) Proc. Natl. Acad. Sci. USA 96:3081-3086. In brief, cell lysates were prepared with PBS at multiple dilutions, and 50 μl of each sample was incubated with bicarbonate-carbonate buffer (50 μl) at 40° C. in a 96-well plate (Maxisorp Nunc, Fisher Scientific, Santa Clara, Calif.), until dry. Plates were washed three times with PBS and blocked with 2% bovine serum albumin, fraction V (Sigma) for 1 hour at room temperature. Plates were again washed three times with PBS and then incubated with 50 μl of MUC5AC mAb (1:1 00) that was diluted with PBS containing 0.05% Tween 20. After 1 hour, the wells were washed three times with PBS, and 100 μl horseradish peroxidase-goat anti-mouse IgG conjugate (1:10,000) was dispensed into each well. After 1 hour, plates were washed three times with PBS. Color reaction was developed with 3,3′,5,5′-tetramethylbenzidine (TMB) peroxidase solution (Kirkegaard & Perry Laboratories, Gaithersburg, Md.) and stopped with 2N H2S04. Absorbance was read at 450 nm.

The target in test [3] is EGFR (Homo sapiens, UniProt P00533). In words: Immunoprecipitation of EGF-R and immunoblotting for tyrosine phosphorylation in NCI-H292 cells. Set-up: These cells express EGF-R constitutively; endogenous in cells; host or cells: NCI-H292 (human pulmonary mucoepidermoid carcinoma). Format: cell-based. The method, then:
Immunoprecipitation for EGF-R Protein and Immunoblotting for Tyrosine Phosphorylation. Cells were serum-starved for 24 h and then stimulated with TGFα, H2O2, or the supernatant of activated neutrophils for 15 min. After stimulation, cells were lysed and incubated for 30 min in an orbital shaker at 4° C. To remove insoluble material, cell lysates were centrifuged at 14,000 rpm for 5 min at 4° C. Aliquots of supernatants containing equal amounts of protein were immunoprecipitated with anti-EGF receptor antibody (polyclonal, Ab4, Calbiochem) and 20 μl of protein A-agarose (Santa Cruz) for 2 h at 4° C. Precipitates were washed three times with 0.5 ml of lysis buffer, suspended in SDS sample buffer, and boiled for 5 min. Proteins were separated by SDS-PAGE in 8.0% acrylamide gel. The resulting gel was equilibrated in the transfer buffer: 25 mM Tris-HCl, 192 mM glycine, 20% (vol/vol) methanol, pH 8.3. The proteins were then transferred electrophoretically to nitrocellulose membranes (0.22 μm), blocked with 5% fat-free skimmed milk in PBS containing 0.05% Tween 20 overnight and then incubated with monoclonal anti-phosphotyrosine antibody (1:100,Santa Cruz) for 1 h. Bound antibody was visualized according to a standard protocol for the avidin-biotin-alkaline phosphatase complex method (ABC kit, Vector Laboratories).

Sequence of EGFR (P00533 25-1210): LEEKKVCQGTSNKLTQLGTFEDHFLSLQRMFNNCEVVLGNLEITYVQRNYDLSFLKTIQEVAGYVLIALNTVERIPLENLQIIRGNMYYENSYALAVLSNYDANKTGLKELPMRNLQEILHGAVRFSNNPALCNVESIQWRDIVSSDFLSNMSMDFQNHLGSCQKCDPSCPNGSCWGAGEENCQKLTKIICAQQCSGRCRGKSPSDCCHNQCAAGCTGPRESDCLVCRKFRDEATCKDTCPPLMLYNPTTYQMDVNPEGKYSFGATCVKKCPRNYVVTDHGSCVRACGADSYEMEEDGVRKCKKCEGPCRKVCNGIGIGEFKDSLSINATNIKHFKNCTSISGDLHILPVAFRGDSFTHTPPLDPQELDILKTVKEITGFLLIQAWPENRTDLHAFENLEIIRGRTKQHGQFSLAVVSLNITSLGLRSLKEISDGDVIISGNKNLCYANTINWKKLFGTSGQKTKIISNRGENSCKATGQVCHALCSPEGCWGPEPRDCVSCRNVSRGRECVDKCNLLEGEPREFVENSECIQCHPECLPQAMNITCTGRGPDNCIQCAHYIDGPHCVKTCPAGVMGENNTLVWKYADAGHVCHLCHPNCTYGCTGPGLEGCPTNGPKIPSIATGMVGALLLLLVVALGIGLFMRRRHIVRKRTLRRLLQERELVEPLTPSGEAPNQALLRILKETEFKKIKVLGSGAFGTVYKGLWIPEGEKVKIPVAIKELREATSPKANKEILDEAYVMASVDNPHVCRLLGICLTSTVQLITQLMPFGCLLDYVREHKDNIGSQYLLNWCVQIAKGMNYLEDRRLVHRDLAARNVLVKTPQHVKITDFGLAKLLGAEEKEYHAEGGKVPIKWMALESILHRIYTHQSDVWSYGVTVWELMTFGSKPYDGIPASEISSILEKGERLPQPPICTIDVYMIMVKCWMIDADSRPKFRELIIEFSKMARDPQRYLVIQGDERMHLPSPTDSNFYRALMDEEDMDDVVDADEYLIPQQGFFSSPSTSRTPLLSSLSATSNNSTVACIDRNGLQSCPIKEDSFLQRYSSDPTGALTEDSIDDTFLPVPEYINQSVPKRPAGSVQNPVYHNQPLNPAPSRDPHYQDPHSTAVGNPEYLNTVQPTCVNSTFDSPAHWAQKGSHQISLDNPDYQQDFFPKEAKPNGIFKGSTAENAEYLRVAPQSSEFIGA

For `C[S+](C)[O-]` [DMSO], in test [1], the “MUC5AC synthesis induced by cigarette smoke” value is given as “partially inhibited”; the “MUC5AC synthesis by supernatant of activated neutrophils, cigarette smoke and H2O2” value was “significantly inhibited”; the “MUC5AC protein synthesis by TGFα” value is “unaffected”. The “MUC5AC protein synthesis induced by cigarette smoke solution” value in test [2] was “inhibited significantly”. In test [3], the “TGFα-induced EGF-R tyrosine phosphorylation” value is “had no effect”; the “supernatant-, cigarette smoke-, and H2O2-induced EGF-R tyrosine phosphorylation” value is “inhibited”.
Consider superoxide dismutase [SOD], for which, in test [1], the “MUC5AC synthesis induced by cigarette smoke” value is given as “partially inhibited”; the “MUC5AC synthesis by supernatant of activated neutrophils, cigarette smoke and H2O2” value was “significantly inhibited”; the “MUC5AC protein synthesis by TGFα” value is on record as “unaffected”. Besides, the “MUC5AC protein synthesis induced by cigarette smoke solution” value in test [2] was “inhibited significantly”.
In the case of `COc1cc2ncnc(Nc3cccc(Cl)c3)c2cc1OC` [AG1478], the “MUC5AC protein synthesis induced by the supernatant of activated neutrophils” value in test [1] is reported as “prevented”. The “increase in MUC5AC protein synthesis induced by all stimuli (cigarette smoke, H2O2, TGFα)” value in test [1] (pretreatment 10 μM) is “prevented”. Besides, in test [2], the “MUC5AC mRNA expression induced by cigarette smoke solution” value is reported as “prevented” and the “MUC5AC protein synthesis induced by cigarette smoke solution” value is on record as “prevented”.
Regarding `Cc1cc2ncc(-c3ccccc3)nc2cc1C` [AG1295], the “MUC5AC protein synthesis induced by the supernatant of activated neutrophils” value in test [1] was “without effect”. In addition, in test [2], the “MUC5AC protein synthesis induced by cigarette smoke solution” value was “without effect”.
